Experimental data: the METLIN SMRT retention time set (Domingo-Almenara et al. 2019)
Values belong to the compound of their own block, whether it stands above or below them.

Experiment: gradient 5% acetonitrile 3 min, to 50% in 2 min, to 85% in 15 min, held 3 min, 100 µL/min
Details: column: Zorbax Extend-C18 2.1 x 50 mm; eluents: water / acetonitrile, 0.1% formic acid
How it was run: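 Over 3 months, pure standards in mixtures of ~100 molecules were run by HPLC coupled to a quadrupole time-of-flight mass spectrometer in positive and negative ionization mode. The column was a Zorbax Extend-C18 (2.1 × 50 mm, 1.8 μm) at 100 μL/min, eluted with water and acetonitrile each holding 0.1% formic acid, with 40 μL dead and 900 μL dwell volumes. Retention time was determined from adduct peaks chosen by software and checked manually.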

RP-LC retention time: 591 s
Structure (SMILES): O=C(N[C@@H]1CN(Cc2ccsc2)CC[C@@H]1CO)c1ccccc1

RP-LC retention time: 722 s
Structure (SMILES): Cc1ccc(NC(=O)NCC(c2cccnc2)c2cn(C)c3ccccc23)cc1F (centres undefined)

RP-LC retention time: 682 s
Structure (SMILES): COc1cc(NC(=O)NCCc2nc3cccnc3n2-c2ccccc2)cc(OC)c1OC

RP-LC retention time: 619 s
Structure (SMILES): COc1ccc(-c2ccc(=O)n(CCCC(=O)Nc3ccccc3C(N)=O)n2)cc1OC

RP-LC retention time: 680 s
Structure (SMILES): CCOc1ccc(-c2cc(=O)n(CCCC(=O)N3CCN(S(C)(=O)=O)CC3)cn2)cc1

RP-LC retention time: 1190 s
Structure (SMILES): FC(F)(F)c1nnc2c(Sc3ccccc3)nc3ccc(Cl)cc3n12

RP-LC retention time: 860 s
Structure (SMILES): c1ccc(-c2csc(Nc3ccccn3)n2)cc1

RP-LC retention time: 1240 s
Structure (SMILES): CCn1cc(-c2nc(C(=O)Nc3cc(C)ccc3F)cs2)c2cccnc21

RP-LC retention time: 1020 s
Structure (SMILES): CCN(CC)c1nc2cc(C(=O)NCc3ccc(C)o3)ccc2c(=O)n1-c1ccccc1

RP-LC retention time: 884 s
Structure (SMILES): CSc1ncccc1C(=O)Nc1ccc(OCc2nnc(-c3ccccc3)o2)cc1

RP-LC retention time: 591 s
Structure (SMILES): O=C(CN1CC=C(c2cnn(-c3ccccc3)c2)CC1)N1CCN(Cc2ccc3c(c2)OCO3)CC1

RP-LC retention time: 666 s
Structure (SMILES): O=C(Cc1cccs1)NCCn1ncc2c(=O)n(Cc3ccccc3F)cnc21

RP-LC retention time: 733 s
Structure (SMILES): Cc1nn(CC(=O)NC(C)C)c(=O)c2nc(-c3ccccc3)sc12

RP-LC retention time: 663 s
Structure (SMILES): CC(=O)N1CCc2nn(CC(=O)Nc3ccc(Cl)cc3F)c(=O)cc2C1

RP-LC retention time: 881 s
Structure (SMILES): O=c1c(=O)n(-c2cccc(Cl)c2)ccn1Cc1nc(-c2ccc(F)cc2)no1

RP-LC retention time: 851 s
Structure (SMILES): CCC(NC(=O)c1ccc2c(c1)nc1n2CCN(C2CCCCC2)C1=O)c1cccs1 (centres undefined)

RP-LC retention time: 972 s
Structure (SMILES): CC(C)OCCCNC(=O)C(C)n1c(=O)c(C(F)(F)F)nc2ccccc21 (centres undefined)

RP-LC retention time: 716 s
Structure (SMILES): CNC(=O)Cc1csc(-c2ccc(F)cc2)n1

RP-LC retention time: 1020 s
Structure (SMILES): CCc1ccccc1NC(=O)C1CCCN(S(=O)(=O)c2ccc(OC)c(C)c2)C1 (centres undefined)

RP-LC retention time: 1070 s
Structure (SMILES): CCc1ccc(CNC(=O)CCC2CCCN(S(=O)(=O)c3ccccc3C)C2)cc1 (centres undefined)

RP-LC retention time: 735 s
Structure (SMILES): O=C(NCc1cc(F)cc(F)c1)C1CCCN(c2ccc(-c3ccccc3)nn2)C1 (centres undefined)

Second part, the compound before the results:

Structure (SMILES): O=C(CN1C(=O)COc2ccc(C(=O)N3CCCCC3)cc21)N1CCc2ccccc2C1
RP-LC retention time: 788 s

Structure (SMILES): Cc1cc(NC(=O)C2CCCN(c3ccc(-c4ccc(Cl)cc4)nn3)C2)on1 (centres undefined)
RP-LC retention time: 685 s

Structure (SMILES): CC(C)Cn1cc(S(=O)(=O)NC2CCCCCC2)c2cccnc21
RP-LC retention time: 1060 s

Structure (SMILES): Cc1ccc(-c2ccc(N3CCCC(C(=O)NCCCN4CCOCC4)C3)nn2)cc1 (centres undefined)
RP-LC retention time: 571 s

Structure (SMILES): CCOC(=O)C1CCN(C(=O)C2CN(C(=O)c3ccc(F)c(F)c3)C2)CC1
RP-LC retention time: 696 s

Structure (SMILES): CC(NC(=O)c1ccco1)c1nc(-c2ccc3c(c2)ncn3C2CCCC2)no1 (centres undefined)
RP-LC retention time: 674 s

Structure (SMILES): COc1ccc(N2C(=O)C3N=NN(Cc4nc(-c5ccccc5Cl)no4)C3C2=O)cc1OC (centres undefined)
RP-LC retention time: 880 s

Structure (SMILES): CCCCNC(=O)C1(c2ccc(NC(C)=O)cc2)CCC1
RP-LC retention time: 704 s

Structure (SMILES): Cc1ccc(CNC(=O)N2CC(Oc3ccc(-c4nc(C)no4)cc3)C2)cc1
RP-LC retention time: 861 s

Structure (SMILES): CCn1c(=O)c(C)nc2cc(-c3noc(-c4cccc(Cl)c4)n3)ccc21
RP-LC retention time: 1220 s

Structure (SMILES): COc1cc(C(=O)NC(C)COc2ccc(C(C)C)cc2)cc(OC)c1OC (centres undefined)
RP-LC retention time: 965 s

Structure (SMILES): Cc1nc(C)c(C(=O)N2CCC(CC(=O)N3CCOCC3)C2)s1 (centres undefined)
RP-LC retention time: 684 s

Structure (SMILES): CNC(=O)c1c(-c2ccc(F)cc2)oc2cc(N(CCO)S(C)(=O)=O)c(C3CC3)cc12
RP-LC retention time: 838 s

Structure (SMILES): CC1=C(c2ccc(C)cc2)S(=O)(=O)N=C1N1CCCN(C(=O)C2CCC2)CC1
RP-LC retention time: 818 s

Structure (SMILES): COc1cccc(CNC(=O)C2(C)CCCN(C(=O)Nc3ccccc3C(F)(F)F)C2)c1 (centres undefined)
RP-LC retention time: 934 s

Structure (SMILES): c1ccc(CN2CCc3c(sc4ncnc(N5CCOCC5)c34)C2)cc1
RP-LC retention time: 740 s

Structure (SMILES): COc1ccc(NC(=O)Nc2c(-c3cccc(C)c3)nc3ccccn23)cc1
RP-LC retention time: 658 s

Structure (SMILES): CCc1ccc(-c2cc3c(=O)n(Cc4noc(CN5CCOCC5)n4)ccn3n2)cc1
RP-LC retention time: 813 s

Structure (SMILES): CCOc1ccccc1N(CC)C(=O)C1CCCN(c2ncnc3c2nc2n3CCCCC2)C1 (centres undefined)
RP-LC retention time: 807 s

Structure (SMILES): O=C(Nc1ccc(F)c(Cl)c1)C1CCN(S(=O)(=O)c2ccc3[nH]c(=O)ccc3c2)CC1
RP-LC retention time: 812 s

Structure (SMILES): COc1ccc(C(=O)Nc2nccnc2C(=O)NCc2ccc(Br)cc2)cc1
RP-LC retention time: 1010 s

Structure (SMILES): O=C(CC1CCOC2(CCN(Cc3ccco3)CC2)C1)NC1CC1 (centres undefined)
RP-LC retention time: 573 s

Structure (SMILES): O=C([C@@H]1C[C@H](F)CN1C(=O)NCc1ccc(OC(F)(F)F)cc1)N1CCCCC1
RP-LC retention time: 809 s
